Results on 92 compounds are retold here after a melting point compilation (Tetko et al.; mined from patent text by program, amines drawn as free bases though some values may be those of a salt).

A word on the melting point: it is the temperature, or range, at which the solid turns liquid.

In the case of `C=C(C)c1ccc(C(F)(F)C(F)(F)c2ccccc2)cc1`, the melting point was in the range of 97 to 104 °C.
For `CN(C)C(=O)Nc1cccc(-c2nc(=O)c3ccccc3s2)n1` the value was 230 °C; for `CN(C)c1ncc(C(=O)N2CCOC(c3cccc(O)c3)C2)c(-c2ccccc2)n1` (configuration not stated), 140 °C.
`O=C(CC(=O)Nc1ccc2c(c1)NC(=O)C2)Nc1ccc(F)cc1` returned a melting point of 221 °C.
The compound `CC(C)(C)C1CCC(=O)C(CC(=O)c2ccccc2)C1` (configuration not stated) showed a melting point of 127 to 129 °C.
For `O=C(SC1CCCC1C(=O)N1CCC[C@H]1C(=O)O)c1ccccc1` (some centres not stated) the value was 68 to 70 °C; for `CCN(C)C(=O)C1=CC(C)(C)Oc2ccc([N+](=O)[O-])cc21`, 121 to 124 °C.
For `CCOC(=O)c1c(C(F)(F)F)ncc(C(=O)O)c1OC(C)C` the value was 97 to 99 °C; for `COc1cc(N2C(=O)C3(CC3)[C@@H](O)[C@@H]2C)ccc1C#N`, 167 to 169 °C.
`Cc1noc(NC(=O)N2CCC(c3nc(-c4ccccc4)cs3)CC2)c1C` gave a melting point of 156 to 157 °C.
With `COc1ccc(Cl)cc1C1(F)C(=O)Nc2ccc(C)cc21` (configuration not stated) the figure was 193 to 195 °C; with `COc1ccc(S(=O)(=O)NC(CCF)C(=O)OC(C)(C)C)cc1` (configuration not stated), 89 to 90 °C.
With `CC(C)(C#N)c1cc(Cn2cncn2)cc(C(C)(C)C(N)=O)c1` the figure was 51 to 53 °C; with `CCOC(=O)c1cc(OC)c(Cc2cnc(N)nc2N)c(OC)c1`, 201 to 202 °C.
With `Cc1nc(-c2ccc(C(F)(F)F)cc2)oc1CSc1ccc(CC(=O)O)cc1Cl` the figure was 158 to 160 °C.
For `C=CC(=O)NCC(C(C)=O)C(=O)c1ccccc1` (configuration not stated), the melting point lay in the range of 125 to 126 °C.
For `COc1ccc(Cn2cnc3c(-c4ccco4)nc(C)nc32)cc1` the value was 127 to 130 °C; for `COc1ccnc(N2CCN(C(=O)c3ccsc3)CC2)n1`, 90 to 92 °C; for `O=C(O)c1cccc2c1CCCC2O` (configuration not stated), 160 to 162 °C.
On to `CN(C)C(=O)c1cc(-c2ccccc2)c(=O)[nH]c1-c1c(Cl)cccc1C#N`, for which the melting point fell in the range of 264 to 267 °C.
With `Cc1ccc(-c2ncc3c(n2)CCCC3)nc1-c1ccc(C#N)cc1` the figure was 178 to 182 °C; with `COc1cc2c(cc1OC)-c1n[nH]c(Nc3cc(Cl)cc(Cl)c3)c1C2`, above 270 °C.
On to `O=C(O)CCN1CCN(Cc2ccccc2)CC1`, for which the melting point lay in the range of 165 to 166 °C.
In the case of `O=C(O)c1ccc(-c2cnc3c(c2)N(Cc2cc(F)ccc2F)CCN3)cc1`, the melting point was above 300 °C.
With `CC1(C)CS(=O)(=O)CC(C)(C)N1N` the figure was 122 °C; with `COc1ccc2ncc([N+](=O)[O-])c(O)c2c1`, 278 to 281 °C; with `COc1cc(C#N)ccc1C=NO`, 170 to 171 °C.
For `COc1ccc(CN2CCC(c3cn(Cc4ccc(Cl)s4)c4cc(F)ccc34)CC2)cc1C(=O)O` the value was 232 to 236 °C; for `O=C(ON1CCC(c2nsc3ccccc23)CC1)c1ccccc1`, 84 to 85 °C; for `COC(=O)C(C)(C)CCCN1CCN(C(=O)C=Cc2ccccc2)CC1`, 76 °C.
The compound `CCOC(=O)c1ccccc1NC(=O)CN1C(=O)c2ccccc2C1=O` showed a melting point of 187 °C.
With `CS(=O)(=O)OCCNc1ccc(Cl)cc1[N+](=O)[O-]` the figure was 108 to 109 °C.
With `N#Cc1cc(N)ccc1N1CCC(N2CCC(O)CC2)CC1` the figure was 175 °C; with `Cc1cc([N+](=O)[O-])cnc1NCCCN`, 93 to 95 °C; with `O=C(Nc1ccc(F)c(C(F)(F)F)c1)Nc1ccc(OCc2ccccc2)cc1O`, 188 to 191 °C.
Turning to `COc1ccc(CC(=O)NC(NC(=NC#N)Nc2cc(F)ccc2F)C(C)(C)C)cc1OC` (configuration not stated), the melting point was in the range of 190 to 191 °C.
With `Cc1ccc(S(=O)(=O)C(C)(C)C(=O)C(C)C)cc1` the figure was 76 to 79 °C.
With `CCOc1ccc([N+](=O)[O-])c(NN2CCN(C)CC2)c1`, the melting point is 145 °C.
For `COc1cc(CO)c([N+](=O)[O-])cc1OCCCC(=O)O` the value was 172 to 175 °C.
For `Cc1cc(C(N)=O)ncc1C(c1c(F)ccc(F)c1F)S(=O)(=O)CCCO` (configuration not stated) the value was 148 to 150 °C; for `CC(C)(C)Oc1ccc(C(N)=O)cc1`, 135 to 136 °C.
In turn, `COC(=O)c1ccc2c(c1)S(=O)c1cc3c(cc1CC2)CCC3` (configuration not stated) displayed a melting point of 150 to 154 °C.
With `CCCCC(=O)OC1(C(=O)CO)CCC2C3CC(C)C4=CC(=O)CCC4(C)C3C(O)CC21C` (configuration not stated) the figure was 160 °C; with `CO/C=C(/C(=O)OC)c1ccccc1Br`, 68 to 69 °C.
Compound `Nc1nc2ccccc2c2c1ncn2CCCCS(=O)(=O)c1ccccc1` yielded a melting point of 175 to 177 °C.
With `Nc1c(CC(=O)N2CCOCC2)cccc1C(=O)c1ccccc1` the figure was 156 to 158 °C; with `CSc1c(C#N)nn(-c2c(Cl)cc(C(F)(F)F)cc2Cl)c1N(C)C`, 118 to 119 °C.
For `N#Cc1ccc(C(=O)Nc2cccc(-n3nc(C(F)(F)F)cc3C(F)(F)F)c2)cc1` the value was 133 to 134 °C.
In the case of `O=C(O)CCCN(C(=O)c1ccccc1O)C(c1ccccc1)c1ccccc1`, the melting point lay in the range of 162 to 163 °C.
With `O=C(NOCC(O)CO)c1ccc(F)c(F)c1Nc1ccccc1F` (configuration not stated) the figure was 113 to 115 °C; with `CC(=O)NC(=O)Nc1ccc(OS(=O)(=O)c2cccc(C(F)(F)F)c2)cc1N`, 182 °C; with `CS(=O)(=O)c1c(CC(=O)O)n(Cc2ccc(Cl)cc2)c2ccc(F)cc12`, 202 °C.
With `COC(=O)C1=Cc2cc(Br)ccc2N(C)CCC1` the figure was 88 to 89 °C.
Take `CCC(Cc1c(I)cc(I)c(NC(=O)CNCCNCCN)c1I)C(=O)O` (configuration not stated): the melting point worked out at 185 °C.
The compound `NS(=O)(=O)C1=CCC(n2nc(C(F)(F)F)c3ccc4ccccc4c32)C=C1` (configuration not stated) came in with a melting point of 257 to 258 °C.
For `COC(=O)c1cc(NC(C)=O)ccc1OC(C)=O` the value was 133 to 135 °C.
For `C[C@H]1C(=O)Nc2ccc(Cl)cc2N1C(=O)Oc1ccc(Cl)cc1` the value was 185 to 188 °C; for `CCC#CCCOc1cc(/C=C/C(=O)Nc2ccccc2C(=O)O)ccc1OC`, 163 to 165 °C; for `CN(c1ccc(Cl)cc1)C1CCN(C2CCN(c3ccc(OC[C@@]4(C)Cn5cc([N+](=O)[O-])nc5O4)cc3)CC2)CC1`, 231 to 232 °C.
For `O=C(CC1CCOCC1)Nc1cccc2nc(N[C@@H]3CCc4ccccc43)ccc12` the value was 211 °C; for `CCCOc1c(-c2ccccc2)n[nH]c1-c1ccccc1`, 132 °C.
As to `Cc1nc(N)n(N)c(=O)c1CCO`, the melting point is 126 to 135 °C.
For `N#Cc1c(Cl)cc(Cl)c(CCC(=O)O)c1Cl` the value was 127 to 129 °C.
For `Cn1c(=O)cc(-c2cccc(Cl)c2)c2cc(C(O)(c3ccc(Cl)cc3)c3cnccc3Cl)ccc21` (configuration not stated) the value was 178 °C; for `CNC(=O)n1sc(N(C)C)nc1=O`, 164 °C.
With `OCCCc1oc(Sc2ccccn2)nc1-c1ccc(Cl)cc1` the figure was 70 to 71 °C; with `O=c1cc(N2CCOc3ccccc32)oc2c1ccc1ccccc12`, 78 to 79 °C; with `N#Cc1cccnc1N1CCN(CC(=O)Nc2ccc(F)cc2)CC1`, 98 to 100 °C.
For the compound `CC(C)(C)OC(=O)NCCC[C@H](NC(=O)OC(C)(C)C)C(=O)OC(C)(C)C`, the melting point lay within 80 to 82 °C.
On to `NS(=O)(=O)c1ccc2c(c1)C(=NO)CCC2`, for which the melting point fell in the range of 162 to 164 °C.
For `c1ccc(-c2ccc3c(c2)sc2c4ccc(-c5ccccc5)cc4sc32)cc1` the value was above 300 °C; for `Cc1ccc(Nc2nc(C)c(-c3nc4ccccc4c(=O)n3-c3ccc(Cl)cc3)s2)cc1`, above 275 °C.
`CS(=O)c1csc(NC(=O)c2ccccc2O)n1` (configuration not stated): the melting point was 240 °C.
With `COc1ccc(CCCOCCCCCNCC(O)c2cc(Cl)c(N)c(Cl)c2)cc1` (configuration not stated) the figure was 63 to 64 °C; with `CC(C)(C)c1cc(SCCOCC(=O)O)cc(C(C)(C)C)c1O`, 86 °C; with `COc1ccc(Cn2cnc3c(-c4ccco4)nc(C#C[Si](C)(C)C)nc32)cc1`, 155 to 157 °C.
For `CCc1nn(CCO)c(CC)c1Oc1cc(F)cc(-n2cccn2)c1` the value was 120 to 122 °C; for `NC1CC(c2c[nH]c3ccc(CC4COC(=O)N4)cc23)C1` (configuration not stated), 95 to 100 °C.
For `O=C(CF)CCCN1C(=O)c2ccccc2C1=O` the value was 92 °C; for `CCCC(C)C(=O)Oc1c(I)cc(I)cc1I` (configuration not stated), 66 to 68 °C; for `CCOC(=O)/C=C/c1cc(OCc2ccc(OCc3nc(-c4ccco4)oc3C)c(OC)c2)nn1-c1ccccc1`, 127 to 128 °C.
On to `COc1ccc(-c2ccc(-c3ccc(C)cc3)s2)s1`, for which the melting point is 108 to 111 °C.
For `COc1cc2c(Nc3ccc(Cl)cc3F)ncnc2cc1OCc1ccnc(C#N)c1` the value was 209 to 213 °C; for `Cc1cc(NS(=O)(=O)c2ccc(S(N)(=O)=O)cc2)c2[nH]cc(Br)c2c1`, 196 to 197 °C; for `Cn1cncc1C(O)(c1ccc([N+](=O)[O-])cc1)c1ccc2c(c1)c(-c1cccc(Cl)c1)cc(=O)n2C` (configuration not stated), 230 °C.
For `CCC(/C=C(\OC)C(=O)OC)=C\c1cc2ccccc2[nH]1` the value was 93 to 95 °C.
For `CCCC1OCc2c(O)c(C)nc(Cl)c21` (configuration not stated) the value was 242 °C; for `CC(C)N[C@H](CO)Cc1ccccc1`, 65 to 66 °C; for `O=C1CCN(C2(OCCOc3ccccc3)OCCO2)CC1`, 105 to 106 °C.
For `Cc1cc(C)cc(Nc2ncc(-c3ccccc3)s2)c1`, the melting point fell in the range of 175 to 176 °C.
On to `CCOC(=O)Cc1cc(-c2ccccc2)nc2ccccc12`, for which the melting point was determined as 180 °C.
`CCOC(=O)Cc1nn(Cc2ccc(Br)c(Cl)c2)c(=O)c2ccccc12` yielded a melting point of 142 to 145 °C.
